Experimental data reported in patent publication US7960365B2, “Compounds with medicinal effects due to interaction with the glucocorticoid receptor” (N.V. Organon, priority 2006, dated 2011).

Biological target: T1, recombinant human-GR (GR) (Homo sapiens, UniProt P04150)
T1 construct: purchased PanVera
T1 sequence (P04150 1-777): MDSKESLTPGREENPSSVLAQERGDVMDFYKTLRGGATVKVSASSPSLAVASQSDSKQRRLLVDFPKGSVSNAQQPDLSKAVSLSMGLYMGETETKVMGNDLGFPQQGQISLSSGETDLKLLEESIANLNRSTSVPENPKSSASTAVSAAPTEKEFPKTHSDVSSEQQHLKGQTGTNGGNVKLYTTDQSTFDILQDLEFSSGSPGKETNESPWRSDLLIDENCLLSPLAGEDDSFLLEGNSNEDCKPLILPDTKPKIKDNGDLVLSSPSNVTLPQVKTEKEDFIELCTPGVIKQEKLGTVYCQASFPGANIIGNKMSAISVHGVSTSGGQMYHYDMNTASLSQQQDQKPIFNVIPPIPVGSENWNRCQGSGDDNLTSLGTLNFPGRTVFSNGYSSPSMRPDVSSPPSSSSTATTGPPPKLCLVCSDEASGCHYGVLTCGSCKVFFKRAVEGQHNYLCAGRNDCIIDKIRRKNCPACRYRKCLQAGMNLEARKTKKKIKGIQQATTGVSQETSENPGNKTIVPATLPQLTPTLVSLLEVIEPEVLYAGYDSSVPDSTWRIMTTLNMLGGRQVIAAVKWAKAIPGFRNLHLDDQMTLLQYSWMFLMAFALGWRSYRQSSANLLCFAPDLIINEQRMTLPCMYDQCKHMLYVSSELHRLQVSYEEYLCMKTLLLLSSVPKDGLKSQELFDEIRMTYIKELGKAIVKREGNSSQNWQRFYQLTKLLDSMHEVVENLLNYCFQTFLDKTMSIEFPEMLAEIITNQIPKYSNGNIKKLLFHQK
Test: Glucocorticoid Receptor Competitor Assay kit (PanVera), fluorescence polarisation competition binding
Settings: fluormone GS1 1 nM, GR 4 nM, 90 minutes at room temperature
Procedure: The affinity of compounds was tested using a Glucocorticoid Receptor Competitor Assay kit (PanVera®). Components of the kit were thawed from −80° C. on ice (Fluormone GS1, recombinant human-GR (GR)) or at room temperature (GR screening buffer, stabilising peptide and DTT). 10 mM test compounds were manually diluted to 20 μM then serially diluted to a final concentration range of 10 μM to 0.1 nM using the BioMek 2000 (Beckman-Coulter) into a black walled 384 welled plate (Matrix technologies). In the following order: fluormone GS1 (1 nM final concentration) is added to all wells excluding the buffer control wells, GR (4 nM final concentration) is added to all wells except minimum and buffer control wells, cortisol (10 μM final concentration) is added to fluormone GS1 control wells only, buffer is added to all wells to a final volume of 40 μl. The plate is covered and incubated at room temperature with agitation for 90 minutes. Readings were taken using the Analyst (LJL) in fluorescence polarisation reading mode. The MilliP ratio is calculated from cps readings obtained in parallel and perpendicular mode. The percent effect of the bound ligand is calculated at each concentration and the dose response curves plotted allowing the EC50 to be calculated. […]

EC50: 10 nM
Structure (SMILES): CC#C[C@]1(O)CC[C@H]2[C@@H]3CCC4=CC(=O)CCC4=C3[C@@H](c3ccc4c(c3)OCO4)C[C@@]21C [(11beta, 17beta)-11-(1,3-benzodioxol-5-yl)-17-hydroxy-17-(1-propynyl)estra-4,9-dien-3-one]
